Legend:
αVβ3 integrin = target: T1, αVβ3 integrin (Homo sapiens, UniProt P05106+P06756); test: ELISA: inhibition of binding of αVβ3 integrin (source WM-115 cell line) to coated extracellular matrix protein; details: WM-115 cell line as integrin source
T1 construct: the cell line WM-115 was used as a source of αVβ3 integrin; endogenous in cells; host or cells: WM-115 cell line
Protocol: (§1) An ELISA assay based on the published method of Bethert et al., 2000, J Biol Chem 275, 33308-23, was employed.
(§2) Briefly, appropriate microtitre plates were coated with either Fibrinogen or Vitronectin (10 μg/well). These extracellular matrix proteins contain the RGD amino acid sequence that is recognized by αllbβ3 integrin. Human platelet membrane preparations were used as a source of αllbβ3 integrin and the cell line WM-115 was used as a source of αVβ3 integrin. Inhibition of the binding of αllbβ3 integrin containing membrane preparations to the extracellular matrix protein was determined by pre-incubating the platelet membrane preparation with test or control compounds. The binding of the αllbβ3 integrin containing membrane was the quantitated by using a rabbit anti-integrinβ3 antibody, a horse radish peroxidase coupled second antibody and a standard colorimetric detection system.

αllbβ3 integrin = target: T2, αllbβ3 integrin (Homo sapiens, UniProt P05106+P08514); test: ELISA: inhibition of binding of αllbβ3 integrin membrane preparation to coated extracellular matrix protein; details: human platelet membrane preparation
T2 construct: Human platelet membrane preparations were used as a source of αllbβ3 integrin; from tissue; host or cells: human platelets (membrane preparation)
Protocol: as §1, §2

T1 sequence (P06756 31-889 limits assumed): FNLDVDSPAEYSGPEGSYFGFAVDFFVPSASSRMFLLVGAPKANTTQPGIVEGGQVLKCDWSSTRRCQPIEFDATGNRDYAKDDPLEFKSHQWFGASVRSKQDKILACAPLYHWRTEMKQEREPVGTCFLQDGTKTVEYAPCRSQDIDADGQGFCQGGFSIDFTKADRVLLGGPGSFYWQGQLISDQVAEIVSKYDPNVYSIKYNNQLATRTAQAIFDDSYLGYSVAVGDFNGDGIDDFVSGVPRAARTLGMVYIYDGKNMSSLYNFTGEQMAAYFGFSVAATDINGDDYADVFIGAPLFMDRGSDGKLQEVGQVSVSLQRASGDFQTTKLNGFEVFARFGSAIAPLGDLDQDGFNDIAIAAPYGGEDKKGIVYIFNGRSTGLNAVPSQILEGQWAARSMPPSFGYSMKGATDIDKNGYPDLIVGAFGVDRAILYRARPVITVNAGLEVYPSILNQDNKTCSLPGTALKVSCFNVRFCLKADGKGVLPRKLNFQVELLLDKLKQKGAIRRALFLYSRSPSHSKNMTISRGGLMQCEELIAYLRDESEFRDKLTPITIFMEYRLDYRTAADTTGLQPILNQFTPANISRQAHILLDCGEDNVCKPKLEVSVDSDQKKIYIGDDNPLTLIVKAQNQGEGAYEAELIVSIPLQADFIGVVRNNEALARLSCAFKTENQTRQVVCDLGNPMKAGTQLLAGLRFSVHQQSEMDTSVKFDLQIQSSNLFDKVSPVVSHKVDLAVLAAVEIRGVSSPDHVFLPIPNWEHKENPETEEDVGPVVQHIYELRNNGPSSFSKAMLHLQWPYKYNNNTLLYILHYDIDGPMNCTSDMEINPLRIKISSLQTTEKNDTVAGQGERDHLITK
T1 sequence (P06756 891-1048 partner limits assumed): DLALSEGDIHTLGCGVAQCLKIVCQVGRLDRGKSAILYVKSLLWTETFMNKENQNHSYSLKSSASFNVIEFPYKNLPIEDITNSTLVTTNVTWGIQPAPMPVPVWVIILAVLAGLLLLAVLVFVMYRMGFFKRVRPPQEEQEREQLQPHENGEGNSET
T1 sequence (P05106 27-788): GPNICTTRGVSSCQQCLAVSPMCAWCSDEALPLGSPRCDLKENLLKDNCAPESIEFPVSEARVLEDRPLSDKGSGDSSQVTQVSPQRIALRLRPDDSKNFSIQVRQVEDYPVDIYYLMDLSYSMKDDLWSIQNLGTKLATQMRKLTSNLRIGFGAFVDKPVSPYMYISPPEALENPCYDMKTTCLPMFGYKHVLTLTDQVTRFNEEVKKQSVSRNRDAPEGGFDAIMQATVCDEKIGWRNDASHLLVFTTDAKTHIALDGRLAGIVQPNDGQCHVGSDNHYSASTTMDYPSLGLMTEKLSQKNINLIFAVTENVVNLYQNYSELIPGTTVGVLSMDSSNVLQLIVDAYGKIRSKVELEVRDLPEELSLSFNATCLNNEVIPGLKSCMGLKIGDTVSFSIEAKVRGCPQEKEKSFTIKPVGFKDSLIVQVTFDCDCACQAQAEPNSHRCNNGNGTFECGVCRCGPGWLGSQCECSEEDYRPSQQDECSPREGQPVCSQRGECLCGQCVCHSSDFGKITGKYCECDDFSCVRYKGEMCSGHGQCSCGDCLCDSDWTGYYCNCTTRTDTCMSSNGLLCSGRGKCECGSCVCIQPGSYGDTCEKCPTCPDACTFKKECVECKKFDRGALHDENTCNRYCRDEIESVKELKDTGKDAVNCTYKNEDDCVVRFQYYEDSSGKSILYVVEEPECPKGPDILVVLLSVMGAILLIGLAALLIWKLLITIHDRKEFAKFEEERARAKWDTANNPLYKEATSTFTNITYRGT
T2 sequence (P08514 32-887 limits assumed): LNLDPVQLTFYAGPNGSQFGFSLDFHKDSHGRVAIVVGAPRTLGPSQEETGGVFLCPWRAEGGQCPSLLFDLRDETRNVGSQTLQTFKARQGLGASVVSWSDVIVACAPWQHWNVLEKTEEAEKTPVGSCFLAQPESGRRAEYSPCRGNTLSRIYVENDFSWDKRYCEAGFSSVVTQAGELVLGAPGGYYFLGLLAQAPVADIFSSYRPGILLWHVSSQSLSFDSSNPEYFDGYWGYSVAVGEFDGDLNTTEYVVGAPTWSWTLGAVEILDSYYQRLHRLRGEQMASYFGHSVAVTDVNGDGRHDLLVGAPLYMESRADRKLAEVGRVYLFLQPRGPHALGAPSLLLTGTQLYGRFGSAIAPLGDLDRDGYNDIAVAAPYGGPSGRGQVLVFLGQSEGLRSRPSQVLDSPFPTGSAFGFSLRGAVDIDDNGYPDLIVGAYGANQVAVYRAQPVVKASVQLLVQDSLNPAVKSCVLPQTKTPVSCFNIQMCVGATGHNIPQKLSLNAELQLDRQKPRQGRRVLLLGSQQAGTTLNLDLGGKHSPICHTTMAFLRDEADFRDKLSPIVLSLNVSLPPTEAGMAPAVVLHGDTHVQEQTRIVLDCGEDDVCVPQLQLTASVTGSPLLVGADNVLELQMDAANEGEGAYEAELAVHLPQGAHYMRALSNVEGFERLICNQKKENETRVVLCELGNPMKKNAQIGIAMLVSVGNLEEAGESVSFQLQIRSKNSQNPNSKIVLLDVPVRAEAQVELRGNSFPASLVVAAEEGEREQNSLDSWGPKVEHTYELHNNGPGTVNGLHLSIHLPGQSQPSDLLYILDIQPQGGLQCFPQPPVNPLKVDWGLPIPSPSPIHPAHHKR
T2 sequence (P08514 891-1039 partner limits assumed): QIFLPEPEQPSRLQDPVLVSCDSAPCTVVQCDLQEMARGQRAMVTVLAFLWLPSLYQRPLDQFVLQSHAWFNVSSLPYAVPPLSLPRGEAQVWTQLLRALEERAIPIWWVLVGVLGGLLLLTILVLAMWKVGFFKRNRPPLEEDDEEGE
T2 sequence (P05106 27-788): as the sequence (P05106 27-788) above

Row | Compound | INHIBITION 250 uM RECEPTOR aVb3 SUBSTRATE FIBRINOGEN (αVβ3 integrin) | INHIBITION @ 250 uM RECEPTOR allBb3 SUBSTRATE FIBRINOGEN (αllbβ3 integrin) | INHIBITION 250 uM RECEPTOR allBb3 SUBSTRATE VITRONECTIN (αllbβ3 integrin)
1 | COC(=O)c1ccc(COC2C(O)C(COCc3ccc(Br)cc3)OC(OC)C2NC(=O)CCNC(=N)N)cc1 (single isomer, unassigned) [Compound 17] | +++ (81% to 100% inhibition at 250 micromolar) | + (36% to 60% inhibition at 250 micromolar) | +++ (81% to 100% inhibition at 250 micromolar)
2 | COC1OC(COCC(=O)O)C(O)C(OCc2ccccc2)C1NC(=O)CCCN (single isomer, unassigned) [Compound 124] | + (36% to 60% inhibition at 250 micromolar) | ++ (61% to 80% inhibition at 250 micromolar) | +++ (81% to 100% inhibition at 250 micromolar)
3 | CCOC1O[C@H](COCc2ccc(Br)cc2)[C@@H](O)[C@H](OCC(=O)O)[C@H]1NC(=O)CCNC(=N)N (single isomer, unassigned) [Compound 51] | ++ (61% to 80% inhibition at 250 micromolar) | ++ (61% to 80% inhibition at 250 micromolar) | +++ (81% to 100% inhibition at 250 micromolar)
4 | Nc1cccc(C(=O)N[C@H]2C(O)O[C@H](COCC(=O)O)[C@@H](O)[C@@H]2OCc2ccccc2)c1 (single isomer, unassigned) [Compound 33] | − (0% to 35% inhibition at 250 micromolar) | ++ (61% to 80% inhibition at 250 micromolar) | − (0% to 35% inhibition at 250 micromolar)
5 | COC1OC(COCc2ccccc2)C(O)C(OCC(=O)O)C1NC(=O)c1cccc(N)c1 (single isomer, unassigned) [Compound 5] | ++ (61% to 80% inhibition at 250 micromolar) | ++ (61% to 80% inhibition at 250 micromolar) | +++ (81% to 100% inhibition at 250 micromolar)
6 | Nc1cccc(COCC2OC(O)C(NC(=O)c3ccc(Cl)cc3)C(OCc3ccc(C(=O)O)cc3)C2O)c1 (single isomer, unassigned) [Compound 67] | − (0% to 35% inhibition at 250 micromolar) | + (36% to 60% inhibition at 250 micromolar) | +++ (81% to 100% inhibition at 250 micromolar)
7 | CCOC1O[C@H](COCc2cccc(N)c2)[C@@H](O)[C@H](OCC(=O)O)[C@H]1NC(=O)c1ccccc1 (single isomer, unassigned) [Compound 55] | +++ (81% to 100% inhibition at 250 micromolar) | + (36% to 60% inhibition at 250 micromolar) | +++ (81% to 100% inhibition at 250 micromolar)
8 | Nc1cccc(C(=O)NC2C(O)OC(COCC(=O)O)C(O)C2OCc2ccc(Br)cc2)c1 (single isomer, unassigned) [Compound 1] | − (0% to 35% inhibition at 250 micromolar) | + (36% to 60% inhibition at 250 micromolar) | + (36% to 60% inhibition at 250 micromolar)
9 | CC(=O)NC1C(OCc2ccccc2)OC(COCc2cccc(N)c2)C(O)C1OCC(=O)O (single isomer, unassigned) [Compound 95] | − (0% to 35% inhibition at 250 micromolar) | − (0% to 35% inhibition at 250 micromolar) | ++ (61% to 80% inhibition at 250 micromolar)
10 | Nc1cccc(C(=O)N[C@H]2C(O)O[C@H](COCC(=O)O)[C@@H](O)[C@@H]2OCc2ccc(Br)cc2)c1 (some centres unmarked) [Compound 2] | ++ (61% to 80% inhibition at 250 micromolar) | ++ (61% to 80% inhibition at 250 micromolar) | +++ (81% to 100% inhibition at 250 micromolar)
11 | CCOC1OC(COCC(=O)O)C(O)C(OCc2ccccc2)C1NC(=O)CN (single isomer, unassigned) [Compound 117] | − (0% to 35% inhibition at 250 micromolar) | + (36% to 60% inhibition at 250 micromolar) | +++ (81% to 100% inhibition at 250 micromolar)
12 | COC1OC(COCc2ccccc2)C(O)C(OCC(=O)O)C1NC(=O)c1cccc(N)c1 (single isomer, unassigned) [Compound 6] | +++ (81% to 100% inhibition at 250 micromolar) | − (0% to 35% inhibition at 250 micromolar) | +++ (81% to 100% inhibition at 250 micromolar)
13 | COC(=O)c1ccc(COC2C(O)C(COCc3ccccc3)OC(OC)C2NC(=O)CCNC(=N)N)cc1 (single isomer, unassigned) [Compound 13] | − (0% to 35% inhibition at 250 micromolar) | + (36% to 60% inhibition at 250 micromolar) | +++ (81% to 100% inhibition at 250 micromolar)
14 | CC(=O)NC1C(OCCNC(=N)N)OC(COCC(=O)O)C(O)C1OCc1ccccc1 (single isomer, unassigned) [Compound 113] | +++ (81% to 100% inhibition at 250 micromolar) | + (36% to 60% inhibition at 250 micromolar) | +++ (81% to 100% inhibition at 250 micromolar)
15 | COC1OC(COCC(=O)O)C(O)C(OCc2ccccc2)C1NC(=O)C1CCNCC1 (single isomer, unassigned) [Compound 136] | − (0% to 35% inhibition at 250 micromolar) | +++ (81% to 100% inhibition at 250 micromolar) | –
16 | Nc1cccc(C(=O)NC2C(OCc3ccccc3)OC(CO)C(O)C2OCc2ccc(C(=O)O)cc2)c1 (single isomer, unassigned) [Compound 101] | + (36% to 60% inhibition at 250 micromolar) | − (0% to 35% inhibition at 250 micromolar) | ++ (61% to 80% inhibition at 250 micromolar)
17 | CCOC1O[C@H](COCc2ccc(Br)cc2)[C@@H](O)[C@H](OCc2ccc(C(=O)O)cc2)[C@H]1NC(=O)CCNC(=N)N (single isomer, unassigned) [Compound 61] | +++ (81% to 100% inhibition at 250 micromolar) | − (0% to 35% inhibition at 250 micromolar) | +++ (81% to 100% inhibition at 250 micromolar)
18 | CCOC1O[C@H](COCc2ccccc2)[C@@H](O)[C@H](OCC(=O)O)[C@H]1NC(=O)CCNC(=N)N (single isomer, unassigned) [Compound 49] | +++ (81% to 100% inhibition at 250 micromolar) | ++ (61% to 80% inhibition at 250 micromolar) | +++ (81% to 100% inhibition at 250 micromolar)
19 | CCOC1C(O)C(COCC(=O)O)OC(OCc2ccccc2)C1NC(=O)c1cccc(N)c1 (single isomer, unassigned) [Compound 84] | − (0% to 35% inhibition at 250 micromolar) | − (0% to 35% inhibition at 250 micromolar) | − (0% to 35% inhibition at 250 micromolar)
20 | CCOC1C(O)C(COCc2cccc(N)c2)OC(OCc2ccccc2)C1NC(=O)CCC(=O)O (single isomer, unassigned) [Compound 89] | + (36% to 60% inhibition at 250 micromolar) | − (0% to 35% inhibition at 250 micromolar) | +++ (81% to 100% inhibition at 250 micromolar)
21 | Nc1cccc(C(=O)N[C@H]2C(O)O[C@H](COCC(=O)O)[C@@H](O)[C@@H]2OCc2ccccc2)c1 (single isomer, unassigned) [Compound 34] | +++ (81% to 100% inhibition at 250 micromolar) | + (36% to 60% inhibition at 250 micromolar) | +++ (81% to 100% inhibition at 250 micromolar)
